# What was measured:
# [1] = tested on: giant foxtail; assay: Test A pre-/postemergence greenhouse test; type: in vivo, Setaria faberi; settings: for Plant response rating, Foxtail, Giant: 0 to 100 scale where 0 is no effect and 100 is complete control; for Foxtail, Giant plant response rating: 0 to 100 scale
# In short: (§1)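 Sowing in loam/sand; same-day pre (directed soil spray) and post (foliar, 1–2 leaf, 2–10 cm) treatment with surfactant-containing non-phytotoxic solvent formulation; ~10 days in greenhouse; eye-scored injury against untreated plants.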
# [2] = tested on: barnyardgrass; assay: Test C flooded paddy test; type: in vivo, Echinochloa crus-galli; settings: Flood
# In short: (§2)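 Flooded 3 cm over soil; compound into paddy water; depth kept constant. Greenhouse 13–15 d.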
# [3] = tested on: wheat; assay: Test A pre-/postemergence greenhouse test; type: in vivo, Triticum aestivum; settings: for Plant response rating, Wheat: 0 to 100 scale where 0 is no effect and 100 is complete control; for Wheat plant response rating: 0 to 100 scale
# In short: as §1
# [4] = tested on: duck salad; assay: Test C flooded paddy test; type: in vivo, Heteranthera limosa; settings: Flood
# In short: as §2
# [5] = tested on: barnyardgrass; assay: Test A pre-/postemergence greenhouse test; type: in vivo, Echinochloa crus-galli; settings: for Plant response rating, Barnyardgrass: 0 to 100 scale where 0 is no effect and 100 is complete control; for Barnyardgrass plant response rating: 0 to 100 scale
# In short: as §1
# [6] = tested on: corn; assay: Test A pre-/postemergence greenhouse test; type: in vivo, Zea mays; settings: for Plant response rating, Corn: 0 to 100 scale where 0 is no effect and 100 is complete control; for Corn plant response rating: 0 to 100 scale
# In short: as §1
# [7] = tested on: rice; assay: Test C flooded paddy test; type: in vivo, Oryza sativa; settings: Flood
# In short: as §2
# [8] = tested on: redroot pigweed; assay: Test A pre-/postemergence greenhouse test; type: in vivo, Amaranthus retroflexus; settings: for Plant response rating, Pigweed: 0 to 100 scale where 0 is no effect and 100 is complete control; for Pigweed plant response rating: 0 to 100 scale
# In short: as §1
# [9] = tested on: umbrella sedge; assay: Test C flooded paddy test; type: in vivo, Cyperus difformis; settings: Flood
# In short: as §2
# [10] = tested on: velvetleaf; assay: Test A pre-/postemergence greenhouse test; type: in vivo, Abutilon theophrasti; settings: for Plant response rating, Velvetleaf: 0 to 100 scale where 0 is no effect and 100 is complete control; for Velvetleaf plant response rating: 0 to 100 scale
# In short: as §1
# [11] = tested on: crabgrass; assay: Test A pre-/postemergence greenhouse test; type: in vivo, Digitaria sanguinalis; settings: for Plant response rating, Crabgrass, Large: 0 to 100 scale where 0 is no effect and 100 is complete control; for Crabgrass, Large plant response rating: 0 to 100 scale
# In short: as §1
# [12] = tested on: morningglory; assay: Test A pre-/postemergence greenhouse test; type: in vivo, Ipomoea spp.; settings: for Plant response rating, Morningglory: 0 to 100 scale where 0 is no effect and 100 is complete control; for Morningglory plant response rating: 0 to 100 scale
# In short: as §1
# [13] = Postemergence, 500 g ai/ha, 0 is no effect, 100 is complete control
# [14] = Preemergence, 125 g ai/ha, 0 no effect, 100 complete control
# [15] = 62 g ai/ha, scale 0 to 100, 0 no effect, 100 complete control, 13 to 15 days
# [16] = 250 g ai/ha, scale 0 to 100, 0 no effect, 100 complete control, 13 to 15 days
# [17] = 62 g ai/ha, scale 0 to 100 (0 no effect, 100 complete control)
# [18] = Preemergence, 500 g ai/ha, 0 no effect, 100 complete control
SMILES,"Plant response rating, Foxtail, Giant ([1]; Postemergence, 125 g ai/ha)","Foxtail, Giant plant response rating [1, 13]","Foxtail, Giant plant response rating [1, 14]","Plant response rating, Foxtail, Giant ([1]; Preemergence, 500 g ai/ha)","Plant response rating, Barnyardgrass [2, 16]","Wheat plant response rating [3, 13]","Wheat plant response rating [3, 14]","Plant response rating, Ducksalad [4, 16]","Plant response rating, Barnyardgrass ([5]; Postemergence, 125 g ai/ha)","Barnyardgrass plant response rating [5, 13]","Barnyardgrass plant response rating [5, 14]","Plant response rating, Barnyardgrass ([5]; Preemergence, 500 g ai/ha)","Corn plant response rating [6, 13]","Corn plant response rating [6, 14]","Plant response rating, Corn ([6]; Preemergence, 500 g ai/ha)","Plant response rating, Rice [7, 16]","Plant response rating, Pigweed ([8]; Postemergence, 125 g ai/ha)","Pigweed plant response rating [8, 13]","Pigweed plant response rating [8, 14]","Plant response rating, Pigweed ([8]; Preemergence, 500 g ai/ha)",also measured
[O-][n+]1ccccc1[S+]([O-])C(Cl)c1c(C(F)(F)F)nn(CC(F)(F)F)c1Cl (centres unmarked) [Compound 45],50,80,70,100,20,0,0,75,40,70,0,100,0,0,0,25,40,60,50,100,"Plant response rating, Barnyardgrass [2, 15]: 0; Plant response rating, Wheat ([3]; Postemergence, 125 g ai/ha): 0; Plant response rating, Wheat ([3]; Preemergence, 500 g ai/ha): 30; Plant response rating, Ducksalad [4, 15]: 40; Plant response rating, Corn ([6]; Postemergence, 125 g ai/ha): 0; Plant response rating, Rice [7, 15]: 0; Plant response rating, Sedge, Umbrella [9, 16]: 80; Plant response rating, Velvetleaf ([10]; Postemergence, 125 g ai/ha): 30; Velvetleaf plant response rating [10, 13]: 40; Velvetleaf plant response rating [10, 14]: 0; Plant response rating, Velvetleaf ([10]; Preemergence, 500 g ai/ha): 50; Plant response rating, Crabgrass, Large ([11]; Postemergence, 125 g ai/ha): 60; Crabgrass, Large plant response rating [11, 13]: 80; Crabgrass, Large plant response rating [11, 14]: 60; Plant response rating, Crabgrass, Large ([11]; Preemergence, 500 g ai/ha): 80; Plant response rating, Morningglory ([12]; Postemergence, 125 g ai/ha): 0; Morningglory plant response rating [12, 13]: 40; Morningglory plant response rating [12, 14]: 50; Plant response rating, Morningglory ([12]; Preemergence, 500 g ai/ha): 60"
CC(Oc1c(CS(=O)(=O)c2ccc(Cl)c[n+]2[O-])c(C(F)(F)F)nn1C)C(F)(F)F (centres unmarked) [Compound 95],20,80,70,90,20,30,0,80,50,70,10,90,0,0,0,20,0,30,0,10,"Plant response rating, Barnyardgrass [2, 17]: 0; Wheat plant response rating [3, 18]: 30; Plant response rating, Ducksalad [4, 17]: 0; Plant response rating, Rice [7, 17]: 0; Plant response rating, Sedge, Umbrella [9, 17]: 0; Plant response rating, Sedge, Umbrella [9, 16]: 35; Plant response rating, Velvetleaf ([10]; Postemergence, 125 g ai/ha): 40; Velvetleaf plant response rating [10, 13]: 40; Velvetleaf plant response rating [10, 14]: 0; Velvetleaf plant response rating [10, 18]: 0; Plant response rating, Crabgrass, Large ([11]; Postemergence, 125 g ai/ha): 20; Crabgrass, Large plant response rating [11, 13]: 80; Crabgrass, Large plant response rating [11, 14]: 20; Plant response rating, Crabgrass, Large ([11]; Preemergence, 500 g ai/ha): 80; Plant response rating, Morningglory ([12]; Postemergence, 125 g ai/ha): 0; Morningglory plant response rating [12, 13]: 20; Morningglory plant response rating [12, 14]: 0; Plant response rating, Morningglory ([12]; Preemergence, 500 g ai/ha): 20"

# Source: patent publication US20100298141A1, “SUBSTITUTED PYRIDINE N-OXIDE HERBICIDES” (E. I. DU PONT DE NEMOURS AND COMPANY, priority 2007, published 2010)
